Holding throughout (assay type): biochemical
In one assay the target is T1, KAT7 (Homo sapiens, UniProt O95251).
T1 construct: full length human KAT5 (25 nM) and KAT7 (25 nM) were used; purchased Reaction Biology Corporation
In words: HotSpot KAT assay, KAT7. The settings on record: for inhibition at 200 µM: read-out: % inhibition at 200 μM KAT7 (25 nM), NI = no inhibition. The procedure:
(§1) The effects of the compounds on other KATs were determined using the HotSpot KAT assay (Reaction Biology Corporation, Malvern, PA, USA) according to the supplier’s procedure. The recombinant catalytic domains of human KAT2A (aa 323–837, 15 nM), KAT2B (aa 492–658, 25 nM), KAT3B (aa 1284–1672, 1 nM), KAT6A (aa 488–778, 10 nM), KAT6B (aa 657–1069, 10 nM), and full length human KAT5 (25 nM) and KAT7 (25 nM) were used. Each enzyme was incubated with the relevant histone peptide [H3 peptide for KAT2A, KAT2B, KAT3B, KAT6A, and KAT7 (2.5–5 μM, depending on the KAT isoform); H2A peptide for KAT5 (1.25 μM); H4 peptide for KAT6B (2.5 μM)] as a substrate and radio-isotope-labeled [^3H]Acetyl-CoA (0.2–1.5 μM, depending on the KAT isoform) as an acetyl donor in the assay buffer [50 mM Tris–HCl (pH 8.0), 50 mM NaCl, 0.1 mM EDTA, 1 mM DTT, 0.1 mM PMSF, 1% DMSO] for 1 h at 30 °C in the presence or absence of various compounds (1% DMSO final) titrated in a 2-fold serial dilution starting at 200 μM. Histone peptide acetylation was assessed by liquid scintillation counting using a Tri-Carb 2800TR Liquid Scintillation Analyzer (Perkin Elmer). Experiments were performed in biological triplicates. Signal reduction compared to control was plotted (as inhibition percentage) as a function of compound concentration. In cases in which an IC50 was calculated, the values were fitted by nonlinear regression (GraphPad Prism 8.0).

For a further assay, the target named is T2, KAT6B (Homo sapiens, UniProt Q8WYB5).
T2 construct: KAT6B (aa 657–1069, 10 nM); purchased Reaction Biology Corporation
T2 sequence (Q8WYB5 657-1069): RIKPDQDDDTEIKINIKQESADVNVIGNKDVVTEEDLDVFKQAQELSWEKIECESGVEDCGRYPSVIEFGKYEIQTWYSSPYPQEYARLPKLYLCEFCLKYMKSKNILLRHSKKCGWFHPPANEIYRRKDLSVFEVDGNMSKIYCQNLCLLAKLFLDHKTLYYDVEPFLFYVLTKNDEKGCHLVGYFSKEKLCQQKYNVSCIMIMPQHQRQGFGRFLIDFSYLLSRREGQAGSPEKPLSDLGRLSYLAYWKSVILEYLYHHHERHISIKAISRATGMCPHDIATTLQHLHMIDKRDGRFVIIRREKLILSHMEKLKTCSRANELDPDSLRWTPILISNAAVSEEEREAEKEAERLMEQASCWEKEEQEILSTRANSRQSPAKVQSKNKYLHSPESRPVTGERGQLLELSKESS
Nature of the assay: HotSpot KAT assay, KAT6B. The settings on record: for inhibition at 200 µM: read-out: % inhibition at 200 μM KAT6B (10 nM), NI = no inhibition. The procedure: as §1

A further assay has as its target T3, KAT6A (Homo sapiens, UniProt Q92794).
T3 construct: KAT6A (aa 488–778, 10 nM); purchased Reaction Biology Corporation
Nature of the assay: HotSpot KAT assay, KAT6A. The settings on record: for inhibition at 200 µM: read-out: % inhibition at 200 μM KAT6A (10 nM), NI = no inhibition. The procedure: as §1

In the next assay the target is KDAC1 (Homo sapiens, UniProt Q13547). In words: KDAC inhibition assay, KDAC1. The settings on record: mean of three technical replicates. The procedure: (§2) KDAC1, 2, 3 6, and 8 inhibition assays were performed as described previously.[52] Briefly, the relevant human recombinant KDAC was diluted in an assay buffer with the following composition: 150 mM NaCl, 25 mM Tris–HCl (pH 8.0), 2.7 mM KCl, and 1 mM MgCl2; BSA (0.1 mg/mL) was also added in the case of KDAC1. Forty microliters of this solution were added to 10 μL of each inhibitor ([…]) and 50 μL of KDAC Assay substrate (Boc-Lys-(Ac)-AMC, 7–100 μM final concentration, depending on the KDAC isoform), and the resulting solution was mixed. […] After thorough mixing of the resulting solution, the plate was covered and incubated at 37 °C for 25 min and the fluorescence (λemission = 460 nm; λexcitation = 390 nm) was measured on a EnSight Multimode Plate Reader (Perkin Elmer). The shown values are average of three technical replicates ± SD.
Chain of KDAC1 (Q13547 whole entry, canonical isoform): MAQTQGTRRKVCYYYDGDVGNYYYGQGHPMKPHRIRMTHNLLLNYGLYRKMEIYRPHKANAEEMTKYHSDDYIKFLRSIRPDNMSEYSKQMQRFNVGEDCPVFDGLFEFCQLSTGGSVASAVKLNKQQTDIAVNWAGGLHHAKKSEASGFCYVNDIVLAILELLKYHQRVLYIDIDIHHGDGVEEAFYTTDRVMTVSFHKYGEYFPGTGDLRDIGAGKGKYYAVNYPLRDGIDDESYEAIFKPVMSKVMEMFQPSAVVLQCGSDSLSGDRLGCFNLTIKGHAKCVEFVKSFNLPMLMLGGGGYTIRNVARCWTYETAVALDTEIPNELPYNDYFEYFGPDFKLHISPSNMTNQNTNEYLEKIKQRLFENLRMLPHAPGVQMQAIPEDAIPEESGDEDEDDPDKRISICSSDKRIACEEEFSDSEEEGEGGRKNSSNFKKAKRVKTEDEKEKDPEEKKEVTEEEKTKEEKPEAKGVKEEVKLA

Another assay deals with T4, KAT2B (Homo sapiens, UniProt Q92831).
T4 construct: KAT2B (aa 492–658, 25 nM); purchased Reaction Biology Corporation
T4 sequence (Q92831 492-658): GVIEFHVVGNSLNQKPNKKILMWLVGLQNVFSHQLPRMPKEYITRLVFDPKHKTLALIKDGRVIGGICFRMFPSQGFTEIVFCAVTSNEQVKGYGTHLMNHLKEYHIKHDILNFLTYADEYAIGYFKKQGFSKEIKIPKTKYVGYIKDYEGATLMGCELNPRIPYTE
In words: HotSpot KAT assay, KAT2B. The settings on record: enzyme 25 nM; NI = no inhibition at 200 μM; mean ± SD of three independent experiments. Put shortly: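 Radiometric assay: recombinant human catalytic domains (KAT2B aa 492–658, 25 nM; KAT6A aa 488–778, 10 nM; KAT6B aa 657–1069, 10 nM) or full-length KAT7 (25 nM), with H3 peptide (H4 for KAT6B, 2.5 μM) and [3H]acetyl-CoA, pH 8.0, 1 h, 30 °C. Compounds 2-fold from 200 μM; scintillation counting, triplicates, IC50 by nonlinear regression.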

In the next assay the target is T5, KAT5 (Homo sapiens, UniProt Q92993).
T5 construct: full length human KAT5 (25 nM) and KAT7 (25 nM) were used; purchased Reaction Biology Corporation
T5 sequence (Q92993 whole entry): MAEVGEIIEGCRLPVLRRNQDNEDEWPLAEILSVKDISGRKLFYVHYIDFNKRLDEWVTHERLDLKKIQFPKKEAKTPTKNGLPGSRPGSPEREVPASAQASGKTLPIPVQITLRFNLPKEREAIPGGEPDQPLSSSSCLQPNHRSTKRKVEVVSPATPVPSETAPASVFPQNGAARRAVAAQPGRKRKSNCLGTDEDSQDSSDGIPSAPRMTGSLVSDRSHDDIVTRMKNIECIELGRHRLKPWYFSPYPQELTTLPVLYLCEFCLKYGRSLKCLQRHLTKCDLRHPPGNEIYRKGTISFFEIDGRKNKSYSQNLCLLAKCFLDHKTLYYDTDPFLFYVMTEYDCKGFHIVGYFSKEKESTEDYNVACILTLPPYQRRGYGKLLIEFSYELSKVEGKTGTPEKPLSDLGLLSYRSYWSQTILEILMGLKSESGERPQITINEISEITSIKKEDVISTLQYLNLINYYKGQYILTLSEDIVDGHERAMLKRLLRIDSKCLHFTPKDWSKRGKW
Nature of the assay: HotSpot KAT assay, KAT5. The settings on record: for inhibition at 200 µM: read-out: % inhibition at 200 μM KAT5 (25 nM), NI = no inhibition. The procedure:
as §1

Another assay concerns the target T6, KAT8 (Homo sapiens, UniProt Q9H7Z6).
T6 construct: using the previously purified KAT8 (173–458, 5 nM); 6xHis tag with TEV protease cleavage site (N, cleaved yes); made in house; host or cells: E. coli BL21(DE3)
T6 sequence (Q9H7Z6 173-458): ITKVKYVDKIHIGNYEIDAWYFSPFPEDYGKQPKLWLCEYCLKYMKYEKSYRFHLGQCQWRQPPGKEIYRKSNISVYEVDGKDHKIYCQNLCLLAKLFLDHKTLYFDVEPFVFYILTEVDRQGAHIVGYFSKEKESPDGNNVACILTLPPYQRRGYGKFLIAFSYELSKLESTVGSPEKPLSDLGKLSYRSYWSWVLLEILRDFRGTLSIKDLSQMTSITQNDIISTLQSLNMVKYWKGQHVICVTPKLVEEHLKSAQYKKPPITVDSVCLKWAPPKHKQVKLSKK
Nature of the assay: Radioactive KAT8 inhibition assay. The settings on record: read-out: IC50 KAT8 (5 nM); enzyme 5 nM; 2-fold serial dilution from 200 μM; NI = no inhibition at 200 μM; mean ± SD of three independent experiments. Put shortly: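 Purified KAT8 preincubated 20 min at rt with inhibitor (2-fold dilutions from 200 μM, 1% DMSO), then [3H]Ac-CoA and biotinylated peptide added for 4 h at rt. Product captured on streptavidin scintillant plates and counted. IC50 by nonlinear regression of % inhibition, biological triplicates.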

The target of a further assay is KDAC2 (Homo sapiens, UniProt Q92769). Nature of the assay: KDAC inhibition assay, KDAC2. The settings on record: mean of three technical replicates. The procedure: as §2
Chain of KDAC2 (Q92769 whole entry): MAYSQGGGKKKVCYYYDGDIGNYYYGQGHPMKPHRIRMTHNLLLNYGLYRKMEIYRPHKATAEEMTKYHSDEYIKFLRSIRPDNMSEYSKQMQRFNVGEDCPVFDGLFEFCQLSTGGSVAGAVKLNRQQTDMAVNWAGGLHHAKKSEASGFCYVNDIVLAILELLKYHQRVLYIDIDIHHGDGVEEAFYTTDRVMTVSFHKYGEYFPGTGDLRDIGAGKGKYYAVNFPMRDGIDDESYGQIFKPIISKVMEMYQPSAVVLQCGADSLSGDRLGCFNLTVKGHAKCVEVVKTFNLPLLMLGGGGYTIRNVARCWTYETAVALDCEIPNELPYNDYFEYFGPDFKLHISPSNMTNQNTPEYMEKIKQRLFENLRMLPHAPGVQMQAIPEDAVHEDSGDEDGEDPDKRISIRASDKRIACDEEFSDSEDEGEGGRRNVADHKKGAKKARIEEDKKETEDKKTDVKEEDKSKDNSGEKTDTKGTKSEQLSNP

The structures appear in SMILES notation.

T3 sequence (Q92794 488-778): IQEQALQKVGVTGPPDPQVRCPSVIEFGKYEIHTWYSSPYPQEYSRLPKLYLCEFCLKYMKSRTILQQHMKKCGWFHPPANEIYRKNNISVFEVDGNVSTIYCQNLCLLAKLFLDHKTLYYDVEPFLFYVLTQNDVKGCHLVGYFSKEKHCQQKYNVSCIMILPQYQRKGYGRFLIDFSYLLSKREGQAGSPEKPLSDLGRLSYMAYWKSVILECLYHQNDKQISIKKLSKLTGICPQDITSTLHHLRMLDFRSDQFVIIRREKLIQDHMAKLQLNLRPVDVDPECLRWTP
T1 sequence (O95251 whole entry): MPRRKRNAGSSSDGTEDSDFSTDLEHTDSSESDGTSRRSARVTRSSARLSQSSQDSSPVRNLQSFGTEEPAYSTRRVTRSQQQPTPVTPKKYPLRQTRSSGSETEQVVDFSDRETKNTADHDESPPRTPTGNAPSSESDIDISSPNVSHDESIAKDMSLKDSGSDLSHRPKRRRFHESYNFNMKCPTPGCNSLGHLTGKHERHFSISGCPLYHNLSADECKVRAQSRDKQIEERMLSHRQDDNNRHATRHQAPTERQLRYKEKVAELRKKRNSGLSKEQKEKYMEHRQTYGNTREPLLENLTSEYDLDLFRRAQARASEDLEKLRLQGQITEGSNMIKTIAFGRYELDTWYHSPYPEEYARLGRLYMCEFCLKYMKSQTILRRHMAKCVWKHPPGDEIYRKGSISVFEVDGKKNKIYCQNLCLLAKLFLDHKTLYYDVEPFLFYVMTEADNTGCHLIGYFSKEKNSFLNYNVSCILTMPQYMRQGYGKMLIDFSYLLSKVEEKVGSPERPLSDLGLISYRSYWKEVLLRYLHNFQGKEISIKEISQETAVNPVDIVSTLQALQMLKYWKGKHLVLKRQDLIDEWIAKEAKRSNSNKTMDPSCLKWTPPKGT

Consider `CC1=NN(c2ccc(C(=O)O)cc2)C(=O)/C1=C\c1ccc(-c2cc(C)c(C)cc2[N+](=O)[O-])o1` [VII (C646), reference compound], for which the IC50 (commonly the concentration that gives 50% inhibition) on KAT7 (control compound, read-out: IC50 KAT7 (25 nM)) is 8 µM; at KAT6B (read-out: IC50 KAT6B (10 nM), control compound), 5.6 µM; at KAT6A (read-out: IC50 KAT6A (10 nM), control compound), 15 µM; against KAT2B, > 200 µM; at KAT5 (control compound, read-out: IC50 KAT5 (25 nM)) it was 18.3 µM; on KAT8 it was > 200 µM. Moreover, the inhibition – broadly, the relative decrease from the control value, in per cent – at 50 µM against KDAC1 stood at 0.7%; at KDAC2, 75.4%. The inhibition at 100 µM was 1.3% against KDAC1 and 87.6% on KDAC2.

On to `O=C(O)c1ccc(N2N=C(c3ccccc3)/C(=C/c3ccc[nH]3)C2=O)cc1` [Compound 34, (Z)-4-(4-((1H-Pyrrol-2-yl)methylene)-5-oxo-3-phenyl-4,5-dihydro-1H-pyrazol-1-yl)benzoic Acid], for which the inhibition at 200 µM at KAT7 came out at 16.9 ± 0.7%; at KAT6B, 19.6 ± 1%; at KAT6A, 20.9 ± 0.4%; at KAT5, 18.5 ± 1.3%. For the same molecule, the inhibition at 50 µM was 0.04% against KDAC1 and 0.03% against KDAC2. Moreover, the inhibition at 100 µM against KDAC1 amounted to 0.5%; on KDAC2, 0.4%. Also, the results for the IC50 against KAT2B and on KAT8 were > 200 µM and 8.1 ± 0.5 µM, respectively.

As to `CC1=NN(c2ccc(C(=O)O)cc2)C(=O)/C1=C\c1ccc[nH]1` [Compound 19, (Z)-4-(4-((1H-Pyrrol-2-yl)methylene)-3-methyl-5-oxo-4,5-dihydro-1H-pyrazol-1-yl)benzoic Acid], the inhibition at 200 µM came to 0% on KAT7, 4.8 ± 1.6% at KAT6B, 0% on KAT6A and 11.3 ± 0.3% on KAT5. Besides, the inhibition at 50 µM stood at 0.03% on KDAC1 and 0.01% at KDAC2. In addition, the inhibition at 100 µM on KDAC1 amounted to 0.3%; against KDAC2, 0.7%. The IC50 is > 200 µM against KAT2B and 12.1 ± 0.6 µM on KAT8. Further, the “IC50 KAT2B (25 nM)” value against KAT2B was “no inhibition at 200 μM”.

The record behind these values is PMC10226132, “First-in-Class Selective Inhibitors of the Lysine Acetyltransferase KAT8” (Journal of Medicinal Chemistry, 2023).
